Test results: patent US11028051B2, “Tetrahydroquinoline-based bromodomain inhibitors” (St. Jude Children's Research Hospital, priority 2016, dated 2021)
Read-outs that look alike come from different tables or passages of the source.

How the values were obtained:
[1] = biological target: BRD4-BD2 (Homo sapiens (Human), UniProt O60885); assay: competitive TR-FRET assay, BET-BD with acetylated peptide ligand; type: binding; settings: BRD4-BD2; Table 11 additional modifications; read-out: 4.2 EC50
Method: (§1) Inhibitor potency was determined using a competitive TR-FRET assay as detailed herein, measuring interaction of the respective BET-BD with an acetylated peptide ligand (Table 2).

[2] = biological target: BRD2-BD2 (Homo sapiens (Human), UniProt P25440); assay: as above; type: binding; settings: for 2.1/2.2: ratio of BRD2-BD1 EC50 to BRD2-BD2 EC50 (selectivity)
Method: as §1

[3] = biological target: BRDT (Homo sapiens, UniProt Q58F21); assay: as above; type: binding
Method: as §1

[4] = biological target: BRD4-BD1 (Homo sapiens (Human), UniProt O60885); assay: as above; type: binding; settings: BRD4-BD1; Table 11 additional modifications; read-out: 4.1 EC50
Method: as §1

[5] = biological target: BRD3-BD1 (Homo sapiens (Human), UniProt Q15059); assay: as above; type: binding
Method: as §1

[6] = biological target: BRD2-BD1 (Homo sapiens (Human), UniProt P25440); assay: as above; type: binding
Method: as §1

[7] = biological target: BRDT(1) (Homo sapiens (Human), UniProt Q58F21); assay: BROMOscan KD determination; type: binding; settings: Table 10
Description: (§2) DiscoverX® can screen compounds against all ˜42 bromodomains (a service called BROMOscan) and perform follow-up KD determination. This service is considered the industrial standard for bromodomain inhibitor comparisons. […] Dots are symbolic of inhibition of the compound at this concentration; the larger the size of the dot, the greater the activity of the compound. […] Though these compounds are selective for the BET family, the selectivity within the BET family is poor. The results of a competitive binding experiment between compounds 19 (left), 41 (center), and 56 (right) (at a single concentration, 1 μM) and a control for each of the bromodomains are shown in FIG. 5.

[8] = biological target: BRDT(2) (Homo sapiens (Human), UniProt Q58F21); assay: BROMOscan KD determination; type: binding; settings: for T(1)/T(2): BROMOscan KD ratio; for Kd: BROMOscan, Table 10
Description: as §2

[9] = biological target: BRD2(1) (Homo sapiens (Human), UniProt P25440); assay: BROMOscan KD determination; type: binding; settings: Table 10
Description: as §2

[10] = biological target: BRD2(2) (Homo sapiens (Human), UniProt P25440); assay: BROMOscan KD determination; type: binding; settings: for [2(1)/2(2)]: BROMOscan KD ratio; for Kd: BROMOscan, Table 10
Description: as §2

[11] = biological target: BRD3(1) (Homo sapiens (Human), UniProt Q15059); assay: BROMOscan KD determination; type: binding; settings: Table 10
Description: (§3) DiscoverX® can screen compounds against all ˜42 bromodomains (a service called BROMOscan) and perform follow-up KD determination. This service is considered the industrial standard for bromodomain inhibitor comparisons.

[12] = biological target: BRD3(2) (Homo sapiens (Human), UniProt Q15059); assay: BROMOscan KD determination; type: binding; settings: for 3(1)/3(2): BROMOscan KD ratio; for Kd: BROMOscan, Table 10
Description: as §3

[13] = biological target: BRD4(1) (Homo sapiens (Human), UniProt O60885); assay: BROMOscan KD determination; type: binding; settings: Table 10
Description: as §3

[14] = biological target: BRD4(2) (Homo sapiens (Human), UniProt O60885); assay: BROMOscan KD determination; type: binding; settings: for 4(1)/4(2): BROMOscan KD ratio; for Kd: BROMOscan, Table 10
Description: as §3

[15] = tested on: HDMB03 cells; assay: cell viability, CellTiter-Glo; type: cell-based, human; settings: Homo sapiens, read-out: EC50 (μM) HDMB03
Method: Human G3 medulloblastoma or mouse SHH medulloblastoma cells were grown as neurospheres in supplemented neurobasal medium, as previously described (Kawauchi et al., 2012.)
(§4) After 7 days of treatment, an equal volume of CellTiter-Glo reagent (G7572, Promega) was added and the luminescence signal was measured using an automated Envision plate reader (Perkin-Elmer). Luminescence data were normalized by log10 transformation prior to calculating the percent inhibition using the following equation:
(§5) 100*(negative control mean −compound value)/(negative control mean −positive control mean).
High-throughput assay data were analyzed using Robust Interpretation of Screening Experiments (RISE) application written in Pipeline Pilot (Accelrys, v. 8.5) and the R program (R Development Core Team).
Dose-response curves were calculated by regressing the median percent inhibition obtained over triplicate experiments to log 10-transformed concentrations. Non-linear regression was then performed using the R drc package with the four parameter log-logistic function (LL2.4) (Ritz and Streibig, 2009). Curves were fit under three different constraints: (1) all parameters free, (2) high response fixed to 100, (3) low response fixed to 0; and the best fit from these three nested models was selected using the anova.drc function.

[16] = tested on: c-Myc expression in HDMB03 cells; assay: c-Myc expression inhibition, high content microscopy (HCM); type: cell-based, human; settings: Homo sapiens, read-out: EC50 (μM) Myc-inhibition
[17] = tested on: MV-4-11; assay: anti-proliferative activity; type: cell-based; settings: Homo sapiens, MV4-11; Table 7
Method: as §4, §5

[18] = BRD2-BD2, Table 11 additional modifications, read-out: 2.2 EC50
[19] = BRDT, Table 11 additional modifications, read-out: BRDT EC50
[20] = BRD3-BD1, Table 11 additional modifications, read-out: 3.1 EC50
[21] = BRD2-BD1, Table 11 additional modifications, read-out: 2.1 EC50
[22] = Table 6, read-out: EC50 (μM) BRD2(2)
[23] = Table 6, head names no target, BRDT by comparison with Table 4, read-out: EC50
[24] = Table 6, read-out: EC50 (μM) BRD3(1)
[25] = Table 6, read-out: EC50 (μM) BRD2(1)

Sequence of BRD2-BD2 (P25440 344-453): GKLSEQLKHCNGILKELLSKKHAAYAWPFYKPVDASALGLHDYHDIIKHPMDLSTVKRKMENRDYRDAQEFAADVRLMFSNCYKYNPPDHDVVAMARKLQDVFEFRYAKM
Sequence of BRD2(2) (P25440 344-453): as above
Sequence of BRD3(2) (Q15059 306-415): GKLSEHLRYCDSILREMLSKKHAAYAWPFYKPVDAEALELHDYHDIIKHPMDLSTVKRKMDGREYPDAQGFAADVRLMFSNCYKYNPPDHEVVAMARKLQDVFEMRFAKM
Sequence of BRD2(1) (P25440 74-180): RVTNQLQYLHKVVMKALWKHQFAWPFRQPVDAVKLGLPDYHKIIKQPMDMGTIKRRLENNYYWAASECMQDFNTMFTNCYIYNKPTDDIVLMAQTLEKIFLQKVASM
Sequence of BRD2-BD1 (P25440 74-180): as above
Sequence of BRD3(1) (Q15059 34-140): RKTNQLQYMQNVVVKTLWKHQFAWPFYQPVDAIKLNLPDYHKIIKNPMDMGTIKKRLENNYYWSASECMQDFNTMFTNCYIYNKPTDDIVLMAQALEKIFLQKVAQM
Sequence of BRD3-BD1 (Q15059 34-140): as above

Compound	Kd [7]	T(1)/T(2) [8]	Kd [8]	Kd [9]	[2(1)/2(2)] [10]	Kd [10]	Kd [11]	3(1)/3(2) [12]	Kd [12]	Kd [13]	4(1)/4(2) [14]	Kd [14]	EC50 [17]	[2(1)/2(2)] ([2]; Table 6, ratio of EC50)	EC50 [2, 22]	EC50 [3, 23]	EC50 [5, 24]	EC50 [6, 25]	EC50 ([15]; HD-MB03, Table 7)	EC50 ([16]; HD-MB03, Table 7)	further results
CC(=O)Nc1cccc(-c2ccc3c(c2)[C@H](Nc2ccc4ncccc4c2)C[C@H](C)N3C(C)=O)c1 [compound 13]	20 nM	2.9	6.9 nM	28 nM	14.0	2 nM	22 nM	28.2	0.78 nM	17 nM	13.1	1.3 nM									EC50 [1]: 60000 nM; EC50 [2, 18]: 59 µM; 2.1/2.2 [2]: 0.015; EC50 [3, 19]: 2500 nM; EC50 [4]: 1300 nM; EC50 [5, 20]: 1.1 µM; EC50 [6, 21]: 0.88 µM
CC(=O)Nc1cccc(-c2ccc3c(c2)[C@H](Nc2ccccc2C(F)(F)F)C[C@H](C)N3C(C)=O)c1 [compound 41]	290 nM	9.4	31 nM	790 nM	49.4	16 nM	500 nM	138.9	3.6 nM	410 nM	64.1	6.4 nM									[2(1)/2(2)] ([2]; Table 4, ratio of EC50): 57; EC50 ([2]; Table 4, read-out: EC50 (μM) BRD2(2)): 0.35 µM; EC50 ([3]; Table 4, read-out: BRDT EC50): 53000 nM; EC50 ([5]; Table 4, read-out: BRD3(1)): 20 µM; EC50 ([6]; Table 4, read-out: EC50 (μM) BRD2(1)): 70 µM; EC50 ([15]; HD-MB03, Table 5): 1.6 µM; EC50 ([16]; HD-MB03, Table 5): 6.2 µM
COC(=O)c1ccc(N[C@@H]2C[C@H](C)N(C(C)=O)c3ccc(-c4cccc(NCc5ccoc5)c4)cc32)cc1 [compound 43]													0.007 µM	10	0.05 µM	1200 nM	0.41 µM	0.51 µM	1.5 µM	0.88 µM	
CCCCCNc1cccc(-c2ccc3c(c2)[C@H](Nc2ccc(C(=O)OC)cc2)C[C@H](C)N3C(C)=O)c1 [compound 44]													0.035 µM	22.5	0.12 µM	7400 nM	2.1 µM	2.7 µM	0.39 µM	0.3 µM	
CCCCNc1cccc(-c2ccc3c(c2)[C@H](Nc2ccc(C(=O)OC)cc2)C[C@H](C)N3C(C)=O)c1 [compound 45]													0.083 µM	16.25	0.16 µM	7300 nM	2.1 µM	2.6 µM	0.56 µM	0.38 µM	
CCCNc1cccc(-c2ccc3c(c2)[C@H](Nc2ccc(C(=O)OC)cc2)C[C@H](C)N3C(C)=O)c1 [compound 46]													0.018 µM	7.6	0.17 µM	2600 nM	1 µM	1.3 µM	0.35 µM	0.34 µM	
COC(=O)c1ccc(N[C@@H]2C[C@H](C)N(C(C)=O)c3ccc(-c4cccc(NCCC(F)(F)F)c4)cc32)cc1 [compound 47]	21 nM	2.6	8.1 nM	41 nM	8.2	5 nM	37 nM	16.1	2.3 nM	32 nM	11.4	2.8 nM	0.008 µM	7.2	0.32 µM	5800 nM	1.9 µM	2.3 µM	0.35 µM	0.25 µM	
COC(=O)c1ccc(N[C@@H]2C[C@H](C)N(C(C)=O)c3ccc(-c4ccnn4C)cc32)cc1 [compound 49]	17 nM	6.1	2.8 nM	23 nM	13.5	1.7 nM	11 nM	6.9	1.6 nM	14 nM	12.7	1.1 nM									EC50 ([2]; Table 8, read-out: EC50 (μM) BRD2(2)): 0.14 µM; EC50 ([3]; Table 8, head names no target, BRDT by comparison with Table 4, read-out: EC50): 4400 nM; EC50 ([5]; Table 8, read-out: BRD3(1)): 0.9 µM; EC50 ([6]; Table 8, read-out: EC50 (μM) BRD2(1)): 1.4 µM; EC50 ([15]; HD-MB03, Table 9, cancer cell proliferation inhibition): 1.6 µM; EC50 ([16]; HD-MB03, Table 9, c-Myc expression inhibition in HDMB03 cells): 5.1 µM
CCCOc1cccc(-c2ccc3c(c2)[C@H](Nc2ccc(C(=O)OC)cc2)C[C@H](C)N3C(C)=O)c1 [compound 56]	95 nM	4.1	23 nM	160 nM	19.5	8.2 nM	99 nM	23.0	4.3 nM	140 nM	31.8	4.4 nM									EC50 [2, 18]: 0.5 µM; 2.1/2.2 [2]: 16; EC50 [3, 19]: 12000 nM; EC50 [4]: > 63000 nM; EC50 [5, 20]: 8.1 µM; EC50 [6, 21]: 8.2 µM
CC(=O)N1c2ccc(-c3cccc(-n4cccn4)c3)cc2[C@H](Nc2ccc(Cl)cc2)C[C@@H]1C [compound 136]	220 nM	3.3	66 nM	350 nM	21.9	16 nM	220 nM	29.3	7.5 nM	270 nM	35.1	7.7 nM									EC50 [1]: 250 nM; EC50 [2, 18]: 0.19 µM; 2.1/2.2 [2]: 63; EC50 [3, 19]: 10000 nM; EC50 [4]: 17000 nM; EC50 [5, 20]: 10 µM; EC50 [6, 21]: 17 µM
